Entries after “also recorded” stand apart in the source; their conditions may differ.
How the values were obtained:
HDAC5 = biological target: T1, HDAC5 (Homo sapiens, UniProt Q9UQL6); experiment: In vitro HDAC enzyme assay (Reaction Biology Corporation), HDAC5; type: biochemical; conditions: Table 2 isozyme screen; duplicate, SD < 15%
T1 construct: purchased Reaction Biology Corporation

HCT116 = experiment: Antiproliferative assay (Alamar blue, 72 h), HCT116; type: cell-based; conditions: Homo sapiens, HCT-116, HCT116 cells, three independent experiments, SD < 10%, read-out: Antiproliferative effect IC50, HCT116
HDAC6 = biological target: T2, HDAC6 (Homo sapiens, UniProt Q9UBN7); experiment: In vitro HDAC enzyme assay (Reaction Biology Corporation), HDAC6; type: biochemical
T2 construct: purchased Reaction Biology Corporation
T2 sequence (Q9UBN7 1-1215): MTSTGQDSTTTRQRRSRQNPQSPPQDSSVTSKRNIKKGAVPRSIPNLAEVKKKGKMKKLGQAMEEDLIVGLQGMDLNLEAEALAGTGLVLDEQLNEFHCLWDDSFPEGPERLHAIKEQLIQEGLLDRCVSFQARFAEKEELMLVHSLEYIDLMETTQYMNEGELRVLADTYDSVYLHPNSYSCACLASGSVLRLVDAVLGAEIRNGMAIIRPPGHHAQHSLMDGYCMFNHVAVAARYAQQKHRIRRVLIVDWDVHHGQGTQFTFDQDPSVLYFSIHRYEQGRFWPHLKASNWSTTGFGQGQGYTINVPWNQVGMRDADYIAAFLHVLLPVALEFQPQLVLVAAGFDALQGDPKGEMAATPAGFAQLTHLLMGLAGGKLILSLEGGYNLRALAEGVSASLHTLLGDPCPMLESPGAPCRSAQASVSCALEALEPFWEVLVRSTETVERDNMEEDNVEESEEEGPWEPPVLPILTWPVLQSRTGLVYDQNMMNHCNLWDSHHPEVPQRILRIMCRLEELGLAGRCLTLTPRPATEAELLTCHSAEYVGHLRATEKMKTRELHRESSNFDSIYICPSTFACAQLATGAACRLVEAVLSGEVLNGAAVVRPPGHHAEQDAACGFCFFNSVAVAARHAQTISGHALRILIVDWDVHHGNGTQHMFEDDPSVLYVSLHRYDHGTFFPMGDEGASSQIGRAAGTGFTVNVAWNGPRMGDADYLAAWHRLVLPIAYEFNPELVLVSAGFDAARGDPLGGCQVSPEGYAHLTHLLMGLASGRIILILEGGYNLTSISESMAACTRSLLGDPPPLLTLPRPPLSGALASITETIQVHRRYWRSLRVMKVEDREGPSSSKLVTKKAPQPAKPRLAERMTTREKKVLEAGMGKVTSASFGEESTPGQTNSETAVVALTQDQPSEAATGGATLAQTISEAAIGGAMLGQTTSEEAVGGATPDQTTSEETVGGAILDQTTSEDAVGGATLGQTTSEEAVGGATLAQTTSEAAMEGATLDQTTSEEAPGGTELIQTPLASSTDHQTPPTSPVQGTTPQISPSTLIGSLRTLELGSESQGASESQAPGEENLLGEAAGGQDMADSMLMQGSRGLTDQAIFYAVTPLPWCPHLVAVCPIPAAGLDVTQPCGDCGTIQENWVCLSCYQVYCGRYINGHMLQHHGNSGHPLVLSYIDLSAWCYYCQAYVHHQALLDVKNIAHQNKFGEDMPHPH

HL60 = experiment: NCI-60 antiproliferative screening, HL60; type: cell-based; conditions: Homo sapiens, HL-60, HL60 (Leukemia), read-out: Inhibition% values at 10 μM concentration
From the text: (§1) Then, 8f was submitted to NCI for antiproliferative evaluation against 59 different tumor cell lines. The cancer types of the NCI-60 program include leukemia, non-small cell lung cancer (NSCLC), colon cancer, CNS cancer, melanoma, ovary cancer, renal cancer, prostate cancer, and breast cancer.

acetylated α-tubulin = experiment: Western blot, acetylated α-tubulin in RPMI-8226 cells; type: cell-based, human; conditions: 24 h, 1, 5, and 10 μM
Method: RPMI-8226 cells (1 × 10^6) were seeded overnight and incubated with compound 8f for 24 h on indicated concentrations. Cell extract was prepared by lysing cultured cells with a mammalian protein extraction reagent supplemented with EDTA-free protease inhibitor for 15 min. SDS-PAGE and immunoblot analysis were conducted as described. Antibodies for Ac-H3 (abcom, AB32129) and Ac-ɑ-tubulin (Cell Signaling, 2144) were used.

OVCAR-8 = experiment: NCI-60 antiproliferative screening, OVCAR-8; type: cell-based; conditions: Homo sapiens, OVCAR-8 (Ovarian Cancer), read-out: Inhibition% values at 10 μM concentration
From the text: as §1

OVCAR-3 = experiment: NCI-60 antiproliferative screening, OVCAR-3; type: cell-based; conditions: Homo sapiens, OVCAR-3 (Ovarian Cancer), read-out: Inhibition% values at 10 μM concentration
From the text: as §1

HDAC8 = biological target: T3, HDAC8 (Homo sapiens, UniProt Q9BY41); experiment: In vitro HDAC enzyme assay (Reaction Biology Corporation), HDAC8; type: biochemical; conditions: Table 2 isozyme screen; duplicate, SD < 15%
T3 construct: purchased Reaction Biology Corporation
T3 sequence (Q9BY41 whole entry): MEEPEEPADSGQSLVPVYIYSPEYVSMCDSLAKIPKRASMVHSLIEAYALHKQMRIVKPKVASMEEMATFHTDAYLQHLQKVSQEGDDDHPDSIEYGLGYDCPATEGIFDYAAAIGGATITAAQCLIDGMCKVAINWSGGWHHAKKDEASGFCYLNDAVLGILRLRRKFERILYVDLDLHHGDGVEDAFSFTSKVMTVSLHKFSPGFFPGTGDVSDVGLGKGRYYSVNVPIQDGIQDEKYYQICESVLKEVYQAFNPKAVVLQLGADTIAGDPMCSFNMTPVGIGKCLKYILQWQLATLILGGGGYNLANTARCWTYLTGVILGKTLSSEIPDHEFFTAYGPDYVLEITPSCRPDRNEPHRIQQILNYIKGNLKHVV

HDAC1 = biological target: T4, HDAC1 (Homo sapiens, UniProt Q13547); experiment: In vitro HDAC enzyme assay (Reaction Biology Corporation), HDAC1; type: biochemical; conditions: Table 1; duplicate, SD < 15%
T4 construct: purchased Reaction Biology Corporation
T4 sequence (Q13547 whole entry): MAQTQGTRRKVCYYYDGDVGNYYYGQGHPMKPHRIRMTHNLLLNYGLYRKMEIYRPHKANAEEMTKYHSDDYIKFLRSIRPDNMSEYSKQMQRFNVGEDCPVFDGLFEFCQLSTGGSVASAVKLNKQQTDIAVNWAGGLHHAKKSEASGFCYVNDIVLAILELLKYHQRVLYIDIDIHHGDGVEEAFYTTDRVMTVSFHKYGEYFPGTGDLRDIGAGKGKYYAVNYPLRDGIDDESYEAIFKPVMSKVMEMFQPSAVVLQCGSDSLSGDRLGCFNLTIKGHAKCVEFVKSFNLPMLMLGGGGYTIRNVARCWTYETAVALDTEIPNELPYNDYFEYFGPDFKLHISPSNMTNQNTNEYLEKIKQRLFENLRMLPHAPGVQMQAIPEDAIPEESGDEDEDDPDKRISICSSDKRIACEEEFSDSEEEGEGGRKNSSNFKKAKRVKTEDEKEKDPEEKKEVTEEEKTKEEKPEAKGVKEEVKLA

NCI-H522 = experiment: NCI-60 antiproliferative screening, NCI-H522; type: cell-based; conditions: Homo sapiens, NCI-H522 (Non-Small Cell Lung Cancer), read-out: Inhibition% values at 10 μM concentration
From the text: as §1

HCT-116 = experiment: NCI-60 antiproliferative screening, HCT-116; type: cell-based; conditions: Homo sapiens, HCT-116 (Colon Cancer), read-out: Inhibition% values at 10 μM concentration
From the text: as §1

HDAC2 = biological target: T5, HDAC2 (Homo sapiens, UniProt Q92769); experiment: In vitro HDAC enzyme assay (Reaction Biology Corporation), HDAC2; type: biochemical; conditions: Table 2 isozyme screen; duplicate, SD < 15%
T5 construct: purchased Reaction Biology Corporation
T5 sequence (Q92769 whole entry): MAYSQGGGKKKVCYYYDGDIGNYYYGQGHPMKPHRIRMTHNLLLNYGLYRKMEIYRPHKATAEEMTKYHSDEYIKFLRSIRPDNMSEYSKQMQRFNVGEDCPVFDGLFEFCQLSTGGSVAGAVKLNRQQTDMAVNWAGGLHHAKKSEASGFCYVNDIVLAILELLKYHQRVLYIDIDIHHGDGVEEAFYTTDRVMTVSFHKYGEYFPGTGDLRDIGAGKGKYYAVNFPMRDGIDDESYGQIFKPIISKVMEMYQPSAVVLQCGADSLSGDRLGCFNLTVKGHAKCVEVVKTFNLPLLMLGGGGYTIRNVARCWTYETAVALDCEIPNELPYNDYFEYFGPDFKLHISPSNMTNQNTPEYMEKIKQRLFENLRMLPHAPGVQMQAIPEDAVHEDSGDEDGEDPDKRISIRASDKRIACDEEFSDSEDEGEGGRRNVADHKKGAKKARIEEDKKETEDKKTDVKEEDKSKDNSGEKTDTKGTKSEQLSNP

RPMI-8226 = experiment: NCI-60 antiproliferative screening, RPMI-8226; type: cell-based; conditions: Homo sapiens, RPMI-8226 (Leukemia), read-out: Inhibition% values at 10 μM concentration
From the text: as §1

HS 578T = experiment: NCI-60 antiproliferative screening, HS 578T; type: cell-based; conditions: Homo sapiens, HS 578T (Breast Cancer), read-out: Inhibition% values at 10 μM concentration
From the text: as §1

K-562 = experiment: NCI-60 antiproliferative screening, K-562; type: cell-based; conditions: Homo sapiens, K562, K-562 (Leukemia), read-out: Inhibition% values at 10 μM concentration
From the text: as §1

COLO 205 = experiment: NCI-60 antiproliferative screening, COLO 205; type: cell-based; conditions: Homo sapiens, COLO 205 (Colon Cancer), read-out: Inhibition% values at 10 μM concentration
From the text: as §1

SR = experiment: NCI-60 antiproliferative screening, SR; type: cell-based; conditions: Homo sapiens, SR (Leukemia), read-out: Inhibition% values at 10 μM concentration
From the text: as §1

MALME-3M = experiment: NCI-60 antiproliferative screening, MALME-3M; type: cell-based; conditions: Homo sapiens, MALME-3M (Melanoma), read-out: Inhibition% values at 10 μM concentration
From the text: as §1

T1 sequence (Q9UQL6 whole entry): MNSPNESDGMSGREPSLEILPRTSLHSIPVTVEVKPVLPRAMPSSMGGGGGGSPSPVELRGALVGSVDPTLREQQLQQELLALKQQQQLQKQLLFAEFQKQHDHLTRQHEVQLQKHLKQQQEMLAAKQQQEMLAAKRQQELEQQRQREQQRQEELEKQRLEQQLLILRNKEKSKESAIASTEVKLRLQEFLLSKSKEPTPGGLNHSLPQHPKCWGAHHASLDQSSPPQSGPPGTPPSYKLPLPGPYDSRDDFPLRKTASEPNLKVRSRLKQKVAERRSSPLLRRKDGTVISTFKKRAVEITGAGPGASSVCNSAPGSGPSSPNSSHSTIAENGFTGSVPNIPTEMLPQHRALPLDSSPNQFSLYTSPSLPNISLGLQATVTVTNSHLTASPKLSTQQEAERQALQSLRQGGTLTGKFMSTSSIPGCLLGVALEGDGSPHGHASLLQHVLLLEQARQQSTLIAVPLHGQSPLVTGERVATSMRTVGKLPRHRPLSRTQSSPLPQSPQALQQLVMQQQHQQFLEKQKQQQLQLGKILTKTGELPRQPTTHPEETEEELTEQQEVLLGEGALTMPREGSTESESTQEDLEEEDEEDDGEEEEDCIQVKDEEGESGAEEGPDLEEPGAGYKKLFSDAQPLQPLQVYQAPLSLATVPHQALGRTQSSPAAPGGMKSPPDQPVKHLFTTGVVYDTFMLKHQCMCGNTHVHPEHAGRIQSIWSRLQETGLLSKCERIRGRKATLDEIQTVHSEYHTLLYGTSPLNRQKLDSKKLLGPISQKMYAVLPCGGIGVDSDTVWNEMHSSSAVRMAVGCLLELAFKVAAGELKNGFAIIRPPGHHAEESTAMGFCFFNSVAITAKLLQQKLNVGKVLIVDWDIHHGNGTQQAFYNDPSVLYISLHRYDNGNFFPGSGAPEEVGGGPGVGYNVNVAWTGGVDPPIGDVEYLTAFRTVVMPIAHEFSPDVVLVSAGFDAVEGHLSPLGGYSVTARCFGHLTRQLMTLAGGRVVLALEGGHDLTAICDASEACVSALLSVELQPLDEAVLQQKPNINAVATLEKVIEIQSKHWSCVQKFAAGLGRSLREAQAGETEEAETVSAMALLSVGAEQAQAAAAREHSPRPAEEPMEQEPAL

HDAC5 IC50 (HDAC5): poor activity | IC50 (HDAC5): > 10000 nM | IC50 (HCT116): 3250 nM | selectivity over other subtypes (HDAC6; HDAC6 over other HDAC subtypes): > 48 fold | Selectivity Index (HDAC6; Table 1, HDAC6 against HDAC1): 48 | IC50 (HDAC6; Table 1, duplicate, SD < 15%): 6.4 nM | HDAC8 IC50 (HDAC8): poor activity | IC50 (HDAC8): 510 nM | IC50 (HDAC1): 308 nM | IC50 (HDAC2): 390 nM
SMILES: COc1cccc(-c2nc3c(c(-c4cccc(OC)c4)n2)CCN(C(=O)CCCCCCC(=O)NO)C3)c1 [Compound 8f, 8-(2,4-Bis(3-methoxyphenyl)-5,8-dihydropyrido [3,4-d]pyrimidin-7(6H)-yl)-N-hydroxy-8-oxooctanamide]
inhibition at 10 µM (HL60): 100% | levels of acetylated α-tubulin (acetylated α-tubulin): increase the levels of acetylated α-tubulin in a dose-dependent manner; also recorded: elevated the levels of acetylated α-tubulin in a dose-dependent manner | inhibition at 10 µM (OVCAR-8): 93.6% | inhibition at 10 µM (OVCAR-3): 100% | inhibition at 10 µM (NCI-H522): 69.1% | inhibition at 10 µM (HCT-116): 96% | inhibition at 10 µM (RPMI-8226): 88.7% | inhibition at 10 µM (HS 578T): 97.8% | inhibition at 10 µM (K-562): 90.2% | inhibition at 10 µM (COLO 205): 100% | inhibition at 10 µM (SR): 84.3% | inhibition at 10 µM (MALME-3M): 100%

— PMC10648541, “Design, Synthesis, and Antiproliferative Activity of Selective Histone Deacetylases 6 Inhibitors Containing a Tetrahydropyridopyrimidine Scaffold” (Molecules, 2023)
